# Results from patent publication US9809521B2, “Cannabidinoid derivatives” (priority 2011, dated 2017).
# How the values were obtained:
# [1] = Toxicity observation in the mouse models of metastasis; settings: in vivo
# 4T1 cells = experiment: 4T1 i.v. mouse model, advanced stage metastasis, treatment from day seven; assay type: in vivo; settings: for medium increase in survival: 0.5 or 1 mg/kg daily from seven days after injection
# Protocol: To determine whether CBD could inhibit the formation of lung tumor foci in more advanced stages of metastasis, mice were treated at a time point where visual lung metastatic foci were already formed (as shown at day seven in FIG. 7, panel A). Mice were injected i.v. with 4T1 cells were kept for one week in order to allow for the formation of visible lung metastatic foci. The mice were then treated with CBD.
# In-vivo late stage metastatic studies using a Xenograph mouse model for human breast cancer with CBD. […] Lung metastases were generated in BALB/c mice after tail vein injection of 20×10^5 mouse 4T1 cells. […] One week after the tail vein injection of 20×10^5 mouse 4T1 cells, the tumor bearing mice were injected i.p. once a day with vehicle or 1 mg/kg and 10 mg/kg CBD for seven days. Visible lung metastases were counted and measured by using a dissecting microscope.
# The activity of CBD and the O-1663 CBD analog to inhibit the formation of lung tumor foci in more advanced stages of metastasis was then compared. Mice were treated at a time point where visual lung metastatic foci were already formed. Mice were injected i.v. with 4T1 cells and kept for one week in order to allow for the formation of visible lung metastatic foci. The mice were then treated with CBD and the O-1663 CBD analog. […] A survival study was then carried out where the activity of CBD to O-1663 CBD analog was compared (FIG. 28, panel C).
# In-vivo advanced stage metastasis survivability studies in a mouse model with CBD or O-1663 CBD analog. To determine whether cannabinoids could inhibit the formation of lung tumor foci in more advanced stages of metastasis, we treated mice at a time point where visual lung metastatic foci were already formed (FIG. 30, panel A). Mice injected tail vein with 4T1 cell were kept for one week in order to allow for the formation of visual lung metastatic foci measuring up to 1 mm. The mice where then treated with drug for two months.
# Id-1 [2] = experiment: Quantitative Western analysis of Id-1 expression in 4T1 cells; assay type: cell-based, mouse; settings: 1.0 μM, two days
# Protocol: To examine whether CBD or O-1663 CBD analog would inhibit Id-1 protein expression in cells proposed for the in-vivo metastic cancer model, quantitative Western analysis was performed with 4T1 cells. 4T1 cells were treated with 1.0 μM of cannabinoid for two days and then analyzed for Id-1 protein expression.
# Id-1 promoter = Id-1 promoter luciferase reporter assay in MDA-MB231 cells; assay type: cell-based, human; settings: 1.5 μM, 2 or 3 days
# Protocol: Id-1 promoter reporter assays: A SacI-BspHI fragment of 2.2 kb corresponding to the 5′ upstream region of human Id-1 gene and driving a luciferase gene in a PGL-3 vector (Promega) was used (Id-1-sbsluc). Cells were plated in six well dishes in medium supplemented with 10% FBS and 5 μg/ml insulin. After 24 hours, cells were cotransfected with 6 μg of luciferase reporter plasmids and 2 μg of pCMVβ (Clontech) using Superfect reagent (Qiagen). pCMVβ contained bacterial β-galactosidase and served to control for variation in transfection efficiency. 3 hours after transfection, the cells were rinsed twice with PBS and were cultured in the absence or presence of CBD for 48-72 h. Cell pellets were lysed in 80 μl of reporter lysis buffer (Promega) for 10 min at room temperature. Lysed cells were centrifuged and supernatants harvested. Luciferase and β-gal assays were performed using Luciferase Assay System (Promega), β-Gal Assay Kit (Clontech) and a 2010 luminometer (Pharmingen).
# Gene Expression Assays looking at Id-1 gene epression with CBD in MDA-MB231 cells. […] Twenty-four hours after transfection, MDA-MB231-Id-1-luc cells were treated with CBD for 2 or 3 days and luciferase activity was measured (FIG. 3, panel B and panel C). […] These findings correlated to the data obtained when the expression of the Id-1 protein was assessed by Western analysis.
# Id-1 gene = experiment: PCR of Id-1 mRNA expression in MDA-MB231 cells; assay type: cell-based, human
# Protocol: Polymerase Chain Reaction: Total cellular RNA was isolated from breast cancer cells treated with vehicle control or with CBD. Transcripts for Id-1 and for β-actin were reverse transcribed using SuperscriptII Reverse TranscriptaseII (Gibco-BRL), and polymerase chain reaction performed. The 5′ and 3′ PCR primers were […] (SEQ ID NO:1) and […] (SEQ ID NO:2) for Id-1; and […] (SEQ ID NO:3) and […] (SEQ ID NO:4) for β-actin. PCR was performed in buffer containing 1 μM of each of the 5′ and 3′ PCR primer and 0.5 U of Taq polymerase using 25 cycles for amplification of Id-1 and β-actin cDNAs. The cycle conditions were 45 sec denaturation at 94° C., 45 sec annealing at 55° C., and 1 min extension at 72° C.
# Gene Expression Assays looking at Id-1 gene epression with CBD in MDA-MB231 cells. […] To determine if this effect was due to the inhibition of transcription, a construct was used that contained the Id-1 promoter fused to a luciferase reporter in a PGL-3 basic vector. This construct was transiently transfected into MDA-MB231 cells. Twenty-four hours after transfection, MDA-MB231-Id-1-luc cells were treated with CBD for 2 or 3 days and luciferase activity was measured (FIG. 3, panel B and panel C). […] These findings correlated to the data obtained when the expression of the Id-1 protein was assessed by Western analysis.
# Id-1 [3] = experiment: Immunohistochemical detection of Id-1 in lung metastatic foci; assay type: in vivo, mouse
# Protocol: CBD down-regulates Id-1 expression and breast cancer cell proliferation in lung metastatic foci. […] Lung tissue from mice treated with vehicle or CBD (1 mg/kg) were evaluated for Id-1 expression and Ki67, a marker of cellular proliferation (FIG. 5, panel A).
# Immunohistochemical detection of Id-1 and Ki67 was performed in lung tissues of vehicle and CBD treated mice. Nuclei were stained with hematoxylin. […] The intensity of the immunohistochemical (IHC) detection of Id-1 was then graded from 0 to 4.
# pERK, JNK, p38 MAPK = experiment: Western analysis of MAPK activity in U251 cells
# U251 cells = experiment: Boyden chamber invasion assay; assay type: cell-based, human
# Description: Boyden chamber U251 cell invasion studies with CBD and/or Δ^9-THC. In addition to uncontrolled cell growth, a hallmark phenotype of aggressive GBM tumor cells is their ability to migrate away for the primary tumor of origin and invade into neighboring CNS tissue.
Compound,"overt toxicity (weight, appearance, general activity) [1]",reduction of percent metastasis compared with CBD (4T1 cells; 0.5 and 1 mg/kg),medium increase in survival (4T1 cells),mice without visible lung metastatic foci (4T1 cells; dissection microscope),"mice still alive at end of study (4T1 cells; treatment from day seven, 2 months)",Id-1 protein expression compared with CBD (Id-1 [2]),luciferase activity (Id-1 promoter) (Id-1 promoter),Id-1 mRNA expression (Id-1 gene),lung foci strongly positive for Id-1 (Id-1 [3]; 1 mg/kg),"intensity of IHC detection of Id-1, grade 0 to 4, average (Id-1 [3]; mouse, in vivo)","p-ERK, higher concentrations alone (pERK, JNK, p38 MAPK; 2.5 μM Δ^9-THC, 2.0 μM CBD, three days)","pERK (pERK, JNK, p38 MAPK; THC 1.7 μM, CBD 0.4 μM, two days)","reduction in the number of metastases (4T1 cells; 1 mg/kg and 10 mg/kg i.p. for seven days, from one week after injection)",median increase in survival (4T1 cells; 1 mg/kg starting on day seven),"growth of established lung metastatic foci (4T1 cells; 0.5, 1 or 10 mg/kg i.p. for seven days)",average median survival (4T1 cells; treatment from one week after injection),invasiveness of U251 cells (U251 cells)
CCCCC(C)(C)c1cc(O)c(C2CCC(C3CCCCC3)CC2)c(O)c1 (stereo not drawn) [Compound O-1663],No overt toxicity,significantly more potent than CBD in reducing percent metastasis,30 days,20%,50%,downregulated Id-1 protein expression to a far greater extent than CBD,,,,,,,,,,,
"C=C(C)[C@@H]1CCC(C)=C[C@H]1c1c(O)cc(CCCCC)cc1O [CBD, cannabidiol]",,,4 days,,,,significant inhibition of luciferase activity,significantly reduced,5.6%,around 1,small inhibition of p-ERK,no changes in pERK were observed,≥ 70%,only a day,dose-dependently reduced the growth of established lung metastatic foci,38 days,significantly reduce the invasiveness of U251 cells
